These results are taken from PubChem BioAssay AID977605 (Broad Institute, 2014).

Activity calls are given as the source filed them.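 Rule for the calls: active = fitted curve reaches 40% activation below the top valid tested dose, in every test run; inconclusive = test runs disagree on the call; inactive = the rest, including effects opposite to the expected direction.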

A short description of one assay: E-selectin inducers in HUVECs, dose response, imaging, HUVEC, cherry-picked samples (AID 977605).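 Note: signal is the share of imaged cells scored positive for E-selectin.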 The following applies: HUVEC E-selectin immunostaining, at 19.5 µM (top of the series), percent of TNF-alpha response over vehicle.
In the case of `C[C@@H]1CN([C@@H](C)CO)C(=O)c2cc(NC(=O)Nc3ccc(C(F)(F)F)cc3)ccc2O[C@H]1CN(C)S(=O)(=O)c1ccccc1`, the activation is -0.17% (inactive). Regarding `Cc1noc(C)c1NC(=O)N(C)C[C@@H]1Oc2ccc(NS(=O)(=O)c3cccs3)cc2CC(=O)N([C@H](C)CO)C[C@H]1C`, the activation is -0.165% (inactive). Take `O=S(=O)(Nc1cccc2[nH]ncc12)c1cccs1`: the activation is -0.069% (inactive). On the same count and under the same terms, under `Cc1ccc(NC(=O)CN2CCOCC2)cc1Cl` stands 0.043% (inactive); under `Cc1cc(C(=O)Nc2cccc3c2O[C@H](CN(C)C(=O)NC2CCCCC2)[C@@H](C)CN([C@@H](C)CO)C3=O)n(C)n1`, -0.268% (inactive); under `C[C@H]1CN([C@@H](C)CO)C(=O)Cc2cc(NC(=O)NC3CCCCC3)ccc2O[C@@H]1CN(C)Cc1ccc(Cl)c(Cl)c1`, 0.088% (inactive). As to `COc1ccc(CNS(=O)(=O)c2ccc3c(c2)C(C)(C)C(=O)N3C)cc1`, the activation is 0.021% (inactive). As for `C[C@H]1CN([C@@H](C)CO)C(=O)Cc2cc(NC(=O)Nc3ccccc3)ccc2O[C@H]1CN(C)C`, the activation is 0.067% (inactive).

Take `O=C(Cc1ccc(-n2c(=O)c3sccc3n(Cc3ccc(F)cc3)c2=O)cc1)NCc1ccco1`: the activation is 0.008% (inactive).

Regarding `C[C@@H]1CN([C@H](C)CO)C(=O)c2cccc(NS(C)(=O)=O)c2O[C@H]1CN(C)Cc1ccncc1`, the activation was 1.77% (inactive). Turning to `C[C@@H]1CN([C@H](C)CO)C(=O)c2cc(N(C)C)ccc2O[C@H]1CN(C)Cc1ccc(C(=O)O)cc1`, the activation was -0.039% (inactive). The same measure, in the same setting: the figure for `CCn1c(SCC(=O)N(C)Cc2ccc(OC)c(F)c2)nc2cc(S(N)(=O)=O)ccc21` is -0.113% (inactive). Turning to `CCOc1cc(N2CCOCC2)c(OCC)cc1NC(=O)c1ccc(S(=O)(=O)N2CC(C)OC(C)C2)cc1` (stereo unspecified), the activation was -0.215% (inactive). In the case of `C[C@H](CO)N1C[C@H](C)[C@H](CN(C)Cc2ccc(Cl)c(Cl)c2)Oc2c(NS(=O)(=O)c3cn(C)cn3)cccc2C1=O`, the activation is -0.123% (inactive). Still for that read-out and setting: the figure for `O=S(=O)(NCc1csc(-c2cccs2)n1)c1cccc(C(F)(F)F)c1` is -0.123% (inactive); for `Cc1noc(C)c1NC(=O)N(C)C[C@@H]1Oc2ccc(NC(=O)c3ccncc3)cc2C(=O)N([C@H](C)CO)C[C@H]1C` it is -0.047% (inactive); for `Cc1noc(C)c1NC(=O)Nc1cccc2c1O[C@H](CN(C)CC1CCCCC1)[C@H](C)CN([C@@H](C)CO)C2=O` it is 0.049% (inactive). In the case of `C[C@@H]1CN([C@@H](C)CO)C(=O)c2cc(NC(=O)Nc3ccccc3)ccc2O[C@@H]1CN(C)C(=O)Nc1ccc(C(F)(F)F)cc1`, the activation was 0.807% (inactive). With `COc1ccc(S(=O)(=O)N(C)C[C@H]2Oc3c(NC(=O)Nc4c(C)noc4C)cccc3C(=O)N([C@@H](C)CO)C[C@H]2C)cc1`, the activation was -0.174% (inactive). Turning to `C[C@@H]1CN([C@@H](C)CO)C(=O)c2cc(NC(=O)NC3CCCCC3)ccc2O[C@@H]1CN(C)S(=O)(=O)c1ccc(Cl)cc1`, the activation was -0.037% (inactive). On the same count and under the same terms, under `COc1ccc(S(=O)(=O)N2CCOCC2)cc1C(=O)NCc1ccccc1CN1CCCC1` stands 0.269% (inactive); under `CCCN(C)C[C@@H]1Oc2ncc(-c3ccccc3)cc2C(=O)N([C@H](C)CO)C[C@@H]1C`, -0.269% (inactive); under `C[C@@H]1CN([C@H](C)CO)C(=O)c2cc(NS(C)(=O)=O)ccc2O[C@H]1CN(C)C(=O)Nc1ccccc1`, -0.057% (inactive). For the compound `CCCC#Cc1ccc2c(c1)O[C@@H](CN(C)C(=O)c1ccccc1)[C@@H](C)CN([C@H](C)CO)S2(=O)=O`, the activation is -0.25% (inactive). On to `C[C@H](CO)N1C[C@H](C)[C@H](CN(C)C(=O)Nc2cccc3ccccc23)Oc2ccc(NS(C)(=O)=O)cc2C1=O`, for which the activation was 0.267% (inactive).

Turning to `COc1ccc(NC(=O)Nc2ccc3c(c2)C(=O)N([C@@H](C)CO)C[C@H](C)[C@@H](CN(C)C)O3)cc1`, the activation is 1.42% (inactive). On the same count and under the same terms, the figure for `Cc1cc(C(=O)Nc2cccc3c2O[C@@H](CN(C)S(=O)(=O)c2ccc(F)cc2)[C@@H](C)CN([C@H](C)CO)C3=O)n(C)n1` is 0.077% (inactive); for `CCC(=O)Oc1cccc(C(=O)Nc2cccc(NC(=O)c3ccco3)c2)c1` it is -0.083% (inactive). The same measure, in the same setting: the figure for `Cc1noc(C)c1S(=O)(=O)N(C)C[C@H]1Oc2ccc(NC(=O)C3CC3)cc2CC(=O)N([C@@H](C)CO)C[C@@H]1C` is 32.2% (inactive); for `C[C@@H]1CN([C@@H](C)CO)C(=O)Cc2cc(NC(=O)Cn3cnnn3)ccc2O[C@H]1CN(C)C(=O)Nc1ccc(C(F)(F)F)cc1` it is -0.025% (inactive); for `COc1ccc(N2CCN(C(=O)c3ccccc3NC(=O)C3=C(C)OCCS3)CC2)cc1` it is -0.181% (inactive). Consider `C[C@@H]1CN([C@H](C)CO)C(=O)c2cc(NC(=O)CCN3CCOCC3)ccc2O[C@@H]1CN(C)Cc1ccncc1`, for which the activation was -0.14% (inactive).

Regarding `Cc1c(C(=O)N2CCN(S(=O)(=O)c3cc(F)ccc3F)CC2)oc2ccccc12`, the activation is -0.021% (inactive). For `COc1ccccc1N(CC(=O)NCCSc1ccccn1)S(=O)(=O)c1ccccc1`, the activation is -0.052% (inactive).

For `CN(C)CCN1CCN(C2CN(Cc3cn(Cc4ccc(C(F)(F)F)cc4)nn3)S(=O)(=O)C2)CC1` (stereo unspecified), the activation was 1.57% (inactive).

Regarding `COc1ccc(NC(=O)N(C)C[C@H]2Oc3ccc(N(C)C)cc3CC(=O)N([C@H](C)CO)C[C@@H]2C)cc1`, the activation was -0.19% (inactive). Consider `COc1ccc(C(=O)Nc2ccc3c(c2)OCCO3)cc1[N+](=O)[O-]`, for which the activation was 0.055% (inactive).

Still in this assay, the particulars now being: HUVEC E-selectin immunostaining, at 21 µM (top of the series), percent of TNF-alpha response over vehicle.
`C[C@H](CO)N1C[C@H](C)[C@@H](CN(C)C)Oc2c(NC(=O)CCCCCC(=O)Nc3ccccc3N)cccc2C1=O`: the activation is -0.097% (inactive). Same read-out and setting: the figure for `CNC[C@@H]1Oc2c(NC(=O)Nc3ccc(F)cc3)cccc2C(=O)N([C@H](C)CO)C[C@H]1C` is -0.191% (inactive). The same measure, in the same setting: under `C[C@H](CO)N1C[C@H](C)[C@@H](CN(C)S(=O)(=O)c2cccs2)Oc2ccc(NC(=O)CCN3CCOCC3)cc2C1=O` stands -0.167% (inactive); under `C[C@H](CO)N1C[C@H](C)[C@H](CN(C)C(=O)Nc2ccc3c(c2)OCO3)Oc2c(NS(=O)(=O)c3ccc(Cl)cc3)cccc2C1=O`, -0.135% (inactive); under `COc1ccc(S(=O)(=O)N(C)C[C@H]2Oc3ccc(NC(=O)c4ccncc4)cc3C(=O)N([C@H](C)CO)C[C@H]2C)cc1`, 4.32% (inactive). Turning to `C[C@@H]1CN([C@@H](C)CO)C(=O)Cc2cc(NC(=O)Cc3ccccc3)ccc2O[C@@H]1CN(C)Cc1ccncc1`, the activation is -0.043% (inactive).

On to `COc1ccc(NC(=O)N(C)C[C@@H]2Oc3ccc(NC(=O)c4ccncc4)cc3CC(=O)N([C@@H](C)CO)C[C@@H]2C)cc1`, for which the activation is -0.09% (inactive). Still for that read-out and setting: the figure for `Cc1noc(C)c1NC(=O)Nc1ccc2c(c1)CC(=O)N([C@H](C)CO)C[C@H](C)[C@H](CN(C)S(=O)(=O)c1ccccc1)O2` is -0.132% (inactive); for `C[C@H](CO)N1C[C@H](C)[C@H](CN(C)C)Oc2ccc(NC(=O)Nc3ccccc3)cc2CC1=O` it is -0.138% (inactive).
